{"source": "patent US20040091479A1", "about": "“T-cell epitope of the papillomavirus l1 and e7 protein and use thereof in diagnostics and therapy” (priority 2000, published 2004)", "key": {"[1]": {"tested_on": "HPV18 CVLP-stimulated human T cells", "assay": "Restimulating HPV18 CVLP-stimulated T cells with BLCL presenting Q38, Q39, Q46 or Q47 (example 13)", "type": "cell-based", "conditions": "conclusion from FIG. 12 top right", "description": "In analogy with example 6, human T cells (4×10^5) derived from a non-HLA-typed blood donor were stimulated with HPV18L1ΔCDIE71-53DI CVLPs and HPV18L1ΔCDIE71-60DI CVLPs and harvested.\nThe T cells were then restimulated, at 37° C. and in 100 μl of medium, with in each case 1 μg of peptide Q38, Q39, Q46 or Q47/ml and 10^5 antigen-presenting cells (donor-identical BLCL) in the presence of 10 IU of IL2/ml. Cells which were only incubated with buffer served as the negative control while cells which were incubated with the HPV18 L1 peptide pool or the E7 peptide pool served as positive controls.\n(§1) 1 μl of monensin was added after an hour. The cells were then incubated at 37° C. for a further 5 hours. After that, the cells were fixed and permeabilized and stained with α-human CD8/APC, with α-human CD4/PerCP and with α-human IFNγ/FITC. The labeling of the cells was examined in a FACScan Calibur and the results of the measurements were analyzed using Cellquest software."}, "[2]": {"tested_on": "CVLP-stimulated human CD4-positive T cells", "assay": "Restimulating HPV18 CVLP-stimulated T cells with BLCL presenting HPV18 peptide pools (example 6)", "type": "cell-based", "conditions": "peptide common to two reactive HPV18 pools; CD4/IFNγ", "description": "Human T cells (4×10^5) from a non-HLA-typed blood donor were stimulated for 1 week with HPV18 L1ΔCDIE71-53DI CVLPs and HPV18 L1ΔACDIE71-60DI CVLPS, 800 U of human GM-CSF/ml and 500 U of human IL4/ml and also, for a further 5 weeks, with HPV18 L1ΔCDIE71-53DI CVLPs and HPV18 L1ΔCDIE71-6ODI CVLPs at 37° C., with the weekly addition of 1 μg of the CVLPs mixLure (ratio of the two constructs 1:1)/ml and 10^5 antigen-presenting cells (irradiated PMBC), and harvested.\nThe 20 mer peptides Q1 to 52 were assembled into peptide pools A to H and 1 to 7, respectively, in accordance with the matrix\nThe T cells were then restimulated, at 37° C. and in 100 μl of medium, with the peptide pools and 10^5 antigen-presenting cells (donor-identical BLCL) in the presence of 10 IU of IL2/ml. The quantities of the peptide pools which were used in this connection were such that. 1 μg/ml was added in the case of each individual peptide.\nCells which were only incubated with buffer served as the negative control while cells incubated with the HPV18 L1 peptide pool and the HPV18 E7 peptide pool, respectively, served as positive controls.\nas §1, with “analyzed” for “examined”"}, "[3]": {"tested_on": "CVLP-stimulated CD8-positive T cells", "assay": "Restimulating HPV16 CVLP-stimulated T cells with BLCL presenting HPV16 peptide pools (example 10)", "type": "cell-based, human", "conditions": "peptide common to two reactive HPV16 pools", "description": "(§2) In analogy with example 6, human T cells derived from a non-HLA-typed blood donor were stimulated with HPV16L1ΔC*E71-55 CVLPs and harvested.\n(§3) The T cells were then restimulated, at 37° C. and in 100 μl of medium, with the peptide pools from example 7 and 10^5 antigen-presenting cells (donor-identical BLCL) in the presence of 10 IU of IL2/ml. Use was made, in this connection, of quantities of the peptide pools which was such that 1 μg/ml was added in the case of each individual peptide. Cells which were only incubated with buffer served as the negative control while cells which were incubated with HPV16 L1 peptide pool served as positive controls.\nas §1"}, "[4]": {"tested_on": "HPV18 L1 peptide pool-stimulated CD8-positive T cells", "assay": "Restimulating HPV18 L1 peptide-stimulated T cells with Q9-presenting BLCL (example 8)", "type": "cell-based, human", "description": "In analogy with example 3, human T cells (4×10^5) derived from an HLA A24-positive donor were stimulated for 3 weeks with the HPV18 L1 peptide pool, at 37° C., with the weekly addition of 1 μg of each individual peptide/ml and 10^5 antigen-presenting cells (irradiated PMBC), and harvested.\nThe cells were then restimulated, at 37° C. in 100 μl of medium, with 10 μg of the HPV18 L1 peptide Q9/ml and 10^5 antigen-presenting cells (donor-identical BLCL) in the presence of 10 IU of IL2/ml. Cells which were only incubated with buffer served as the negative control.\nas §1, with “of monensin (300 μM) was added” for “of monensin was added”, “cells were then fixed and” for “cells were fixed and”"}, "[5]": {"tested_on": "peptide-stimulated murine CD8-positive T cells", "assay": "Restimulating HPV18 peptide-stimulated murine T cells with peptide-presenting LKK cells (IFNγ FACScan)", "type": "cell-based, C3H mice", "conditions": "for proportion of CD8-positive T cells reactive on the basis of IFNγ expression: 1 μg peptide/ml, LKK cells, T cells of HPV18 CVLP-inoculated C3H mice, FIG. 3, 4; for T cell epitope assignment: conclusion from FIG. 3, 4", "description": "Murine T cells (4×10^5) derived from C3H mice inoculated with HPV18 L1ΔCDIE71-53DI CVLPs and HPV18 L1ΔCDIE71-6ODI CVLPs were stimulated for 5 weeks with HPV18 L1 or E7 peptide pools at 37° C., with the weekly addition of 1 μg of each individual peptide/ml and 10^5 antigen-presenting cells (irradiated splenocytes), and harvested. The cells were then restimulated, at 37° C. and in 100 μl of medium, with 1 μg of the peptides given on the X axis in FIG. 3/ml and 10^5 antigen-presenting cells (LKK) in the presence of 10 IU of IL2/ml. Cells which were only incubated with buffer served as the negative control.\n1 μl of monensin (300 μm) was added after an hour. The cells were incubated at 37° C. for a further 5 hours. The cells were then fixed and permeabilized and stained with α-mouse CD8/PE, with α-mouse CD4/cychrome and with α-mouse interferony/FITC. The labeling of the cells was analyzed in a FACScan Calibur and the results of the measurement were analyzed using Cellquest software."}, "RMA cells": {"tested_on": "RMA cells", "assay": "51Cr release: lysing HPV18 peptide-loaded RMA cells (example 17)", "type": "cell-based, murine", "conditions": "for T cell epitope assignment: conclusion from FIG. 16 upper part; for specific lysis of target cells (51Cr release): peptide-loaded RMA cells, effector:target 20, FIG. 16 upper part", "description": "In analogy with example 4, RMA or LKK cells were radioactively labeled with ^51Cr and incubated with the peptides (Q43 and Q44 in the upper part of FIG. 16 and Q49 in the lower part of FIG. 16) which are plotted on the X axis. Cells without peptide served as negative controls. T cells which had previously been stimulated with the peptide pool were then added.\nThe lysis of the RMA cells or LKK cells by the T cells was measured by the release of the ^51Cr and calculated as described in example 4."}, "[6]": {"tested_on": "CVLP-stimulated T cells (CD4-positive)", "assay": "Restimulating HPV16 CVLP-stimulated T cells with BLCL presenting pools or P39 (example 9; IFNγ and IL4)", "type": "cell-based, human", "conditions": "for T cell epitope assignment (TH2): peptide common to two reactive HPV16 pools, CD4/IL4", "description": "as §2, §3, §1"}, "human T cells": {"tested_on": "human T cells", "assay": "Summary of examples 3 to 18: epitopes recognized by human T cells", "type": "cell-based", "conditions": "Table 3, HPV16 peptides, species human; TC cytotoxic, TH T helper"}, "[7]": {"tested_on": "CVLP-stimulated CD8-positive T cells", "assay": "Restimulating HPV16 CVLP-stimulated T cells with BLCL presenting HPV16 peptide pools (example 14)", "type": "cell-based, human", "conditions": "peptide common to two reactive HPV16 pools; CD8/IFNγ", "description": "as §2\nThe T cells were then restimulated, at 37° C. and in 100 μl of medium, with the peptide pools from example 7 and 10^5 antigen-presenting cells (donor-identical BLCL) in the presence of 10 IU of IL2/ml. Use was made, in this connection, of quantities of the peptide pools which were such that 1 μg/ml was added in the case of each individual peptide. Cells which were only incubated with buffer served as the negative control, while cells which were incubated with the HPV16 L1 or E7 peptide pool served as positive controls.\nas §1"}}, "note": "Where a SMILES comes first, the peptide text is derived from it.", "data": [{"molecule": "CC[C@H](C)[C@H](NC(=O)[C@H](CCC(=O)O)NC(=O)[C@H](CC(=O)O)NC(=O)[C@H](CC(N)=O)NC(=O)[C@H](CCC(=O)O)NC(=O)[C@H](CCC(=O)O)NC(=O)[C@H](CCC(=O)O)NC(=O)[C@@H](N)CO)C(=O)N[C@@H](CC(=O)O)C(=O)NCC(=O)N[C@H](C(=O)N[C@@H](CC(N)=O)C(=O)N[C@@H](Cc1c[nH]cn1)C(=O)N[C@@H](CCC(N)=O)C(=O)N[C@@H](Cc1c[nH]cn1)C(=O)N[C@@H](CC(C)C)C(=O)N1CCC[C@H]1C(=O)N[C@@H](C)C(=O)N[C@@H](CCCNC(=N)N)C(=O)N[C@@H](CCCNC(=N)N)C(=O)O)C(C)C", "note": "[Q47] (H-SEEENDEIDGVNHQHLPARR-OH; N-terminus and C-terminus assumed)", "values": [{"measurement": "T cell epitope assignment (cytotoxic)", "setting": "[1]", "result": "contain cytotoxic T cell epitopes"}]}, {"molecule": "GGNKQDIPKVSAYQYRVFRV [Q6, HPV18 L1 56-75]", "values": [{"measurement": "T cell epitope assignment", "setting": "[2]", "result": "contains a T helper epitope"}]}, {"molecule": "GLQYRVFRIHLPDPNKFGFP [P7]", "values": [{"measurement": "T cell epitope assignment", "setting": "[3]", "result": "contain a cytotoxic T cell epitope"}]}, {"molecule": "IYNPETQRL [HPV18 L1 90-98, contained in peptide Q9]", "values": [{"measurement": "T cell epitope assignment", "setting": "[4]; 9mer within Q9, deduced from Q9 result and HLA A24 prediction", "result": "HLA A24-restricted cytotoxic T cell epitope"}]}, {"molecule": "MALWRPSDNTVYLPPPSVAR [Q1, HPV18 L1 1-20]", "values": [{"measurement": "T cell epitope assignment", "setting": "[2]", "result": "contain T helper epitopes"}]}, {"molecule": "MHGPKATLQDIVLHLEPQNE [Q44, HPV18 E7 1-20]", "values": [{"measurement": "proportion of CD8-positive T cells reactive on the basis of IFNγ expression", "setting": "[5]", "result": "brought about a restimulation"}, {"measurement": "T cell epitope assignment", "setting": "[5]", "result": "contain H2k-restricted cytotoxic T cell epitopes"}, {"measurement": "T cell epitope assignment", "setting": "RMA cells", "result": "H2b-restricted cytotoxic T cell epitopes"}, {"measurement": "specific lysis of target cells (51Cr release)", "setting": "RMA cells", "result": "able to efficiently lyse"}]}, {"molecule": "PPPGGTLEDTYRFVTSQAIA [P38, HPV16 L1 408-427]", "values": [{"measurement": "T cell epitope assignment (TH2)", "setting": "[6]", "result": "contains a TH2 epitope"}, {"measurement": "Epitope type", "setting": "human T cells", "result": "TH2"}]}, {"molecule": "PYDKLKFWNVDLKEKFSLDL [Q41, HPV18 L1 441-460]", "values": [{"measurement": "T cell epitope assignment", "setting": "[2]", "result": "contain T helper epitopes"}, {"measurement": "proportion of CD8-positive T cells reactive on the basis of IFNγ expression", "setting": "[5]", "result": "brought about a restimulation"}, {"measurement": "T cell epitope assignment", "setting": "[5]", "result": "contain H2k-restricted cytotoxic T cell epitopes"}]}, {"molecule": "RFVTSQAIACQKHTPPAPKE [P39, HPV16 L1 419-438]", "values": [{"measurement": "T cell epitope assignment (TH1)", "setting": "[6]; CD4-positive and IFNγ-positive, pools G and 5 and P39 alone", "result": "contains a T helper epitope"}, {"measurement": "proportion of CD4-positive and IFNγ-positive cells (TH1)", "setting": "[6]; HPV16 pools or P39, donor-identical BLCL, FIG. 8 top", "result": "very high"}, {"measurement": "T cell epitope assignment (TH2)", "setting": "[6]", "result": "contains a TH2 epitope"}, {"measurement": "Epitope type", "setting": "human T cells", "result": "TH1, TH2"}]}, {"molecule": "SIYNPETQRLVWACAGVEIG [Q9, HPV18 L1 89-108]", "values": [{"measurement": "proportion of CD8-positive T cells reactive on the basis of IFNγ expression", "setting": "[4]; 10 μg Q9/ml, donor-identical BLCL, HLA A24-positive donor, FIG. 7", "result": "brought about a restimulation"}, {"measurement": "T cell epitope assignment", "setting": "[4]; conclusion from FIG. 7", "result": "contains an HLA A24-restricted cytotoxic T cell epitope"}]}, {"molecule": "VGHPYFPIKKPNNNKILVPK [P5, HPV16 L1 45-64]", "values": [{"measurement": "T cell epitope assignment", "setting": "[7]", "result": "contain a cytotoxic T cell epitope"}, {"measurement": "T cell epitope assignment", "setting": "[3]", "result": "contain a cytotoxic T cell epitope"}]}, {"molecule": "YLPPVPVSKVVSTDEYVART [P2, HPV16 L1 12-31]", "values": [{"measurement": "T cell epitope assignment", "setting": "[3]", "result": "contain a cytotoxic T cell epitope"}]}, {"molecule": "YPLGRKFLVQAGMHGPKATL [Q43, HPV18 L1 463-474 and E7 1-8]", "values": [{"measurement": "proportion of CD8-positive T cells reactive on the basis of IFNγ expression", "setting": "[5]", "result": "brought about a restimulation"}, {"measurement": "T cell epitope assignment", "setting": "[5]", "result": "contain H2k-restricted cytotoxic T cell epitopes"}, {"measurement": "T cell epitope assignment", "setting": "RMA cells", "result": "H2b-restricted cytotoxic T cell epitopes"}, {"measurement": "specific lysis of target cells (51Cr release)", "setting": "RMA cells", "result": "able to efficiently lyse"}]}]}
